One may read the EC50 as the concentration needed to bring the measured effect to its halfway point.

In patent publication US8697690B2, “Isoindolone M1 receptor positive allosteric modulators” (Merck Sharp & Dohme Corp., priority 2010, dated 2014) one finds EC50 data, which are given here for four compounds.

Structures are written as SMILES.

The assay has as its target T1, acetylcholine muscarinic M1 receptor (Homo sapiens, UniProt P11229).
T1 construct: expressed in transfected cells; host or cells: CHOnfat cells (CHO with NFAT reporter background), Geneticin-selected
T1 sequence (P11229 1-460): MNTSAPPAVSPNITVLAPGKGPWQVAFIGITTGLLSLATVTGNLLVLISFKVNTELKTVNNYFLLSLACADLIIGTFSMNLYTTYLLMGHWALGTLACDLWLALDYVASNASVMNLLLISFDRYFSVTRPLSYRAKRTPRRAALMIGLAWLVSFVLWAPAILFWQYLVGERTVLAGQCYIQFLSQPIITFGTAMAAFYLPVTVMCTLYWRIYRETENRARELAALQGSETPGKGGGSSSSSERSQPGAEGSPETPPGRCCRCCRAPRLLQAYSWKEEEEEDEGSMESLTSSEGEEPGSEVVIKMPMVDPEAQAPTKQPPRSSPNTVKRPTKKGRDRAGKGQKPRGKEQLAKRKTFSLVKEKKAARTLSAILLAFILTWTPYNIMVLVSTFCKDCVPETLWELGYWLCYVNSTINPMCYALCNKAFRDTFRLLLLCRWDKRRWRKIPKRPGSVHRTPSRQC
The experiment in a line: muscarinic FLIPR assay: intracellular calcium in CHOnfat/hM1 cells, potentiation of EC20 acetylcholine. Type of assay: cell-based. The settings on record: IP = inflection point calculated from FLIPR values, 4 min preincubation, then EC20 acetylcholine (3 nM final). As to the method:
The assay studies the effect of one or several concentrations of test compounds on basal or acetylcholine-stimulated Ca^2+ levels using FLIPR.
Compounds are prepared and subjected to a preincubation period of 4 min. Thereafter, a single EC20 concentration of acetylcholine is added to each well (3 nM final). The intracellular Ca^2+ level of each sample is measured and compared to an acetylcholine control to determine any modulatory activity.
Cells: CHOnfat/hM1, hM2, hM3 or hM4 cells are plated 24 hr before the assay at a density of 18,000 cells/well (100 μL) in a 384 well plate. CHOnfat/hM1 and CHOnfat/hM3 Growth Medium: 90% DMEM (Hi Glucose); 10% HI FBS; 2 mM L-glutamine; 0.1 mM NEAA; Pen-Strep; and 1 mg/ml Geneticin, are added. For M2Gqi5CHOnfat and M4Gqi5CHOnfat cells, an additional 600 ug/ml hygromycin is added.
Equipment: 384 well plate, 120 μL addition plate; 96-well Whatman 2 ml Uniplate Incubator, 37° C., 5% CO2; Skatron EMBLA-384 Plate Washer; Multimek Pipetting System; Genesis Freedom 200 System; Mosquito System; Temo Nanoliter Pipetting System; and FLIPR^384 Fluorometric Imaging Plate Reader System are used.
Buffers. Assay Buffer: Hanks Balanced Salt Solution, with 20 mM Hepes, 2.5 mM Probenecid (Sigma P-8761) first dissolved in 1 N NaOH, 1% Bovine Serum Albumin (Sigma A-9647). Dye Loading Buffer: Assay Buffer plus 1% Fetal Bovine Serum and Fluo-4AM/Pluronic Acid Mixture. 2 mM Fluo-4AM ester stock in DMSO (Molecular Probes F-14202) Concentration of 2 μM in buffer for a final concentration of 1 μM in Assay. 20% Pluronic Acid Solution stock, with concentration of 0.04% in Buffer, 0.02% in Assay.
65 μL of 2 mM Fluo-4AM are mixed with 130 μL of 20% Pluronic Acid. The resulting solution and 650 μL FBS is added to the assay buffer for a total volume of 65 mL. Positive Controls: 4-Br-A23187: 10 mM in DMSO; final concentration […]. Acetylcholine: 10 mM in water, working stock at both 20 μM and 30 μM in assay buffer, final concentration of 10 μM. This is used to check the maximum stimulation of the CHOK1/hM1 cells. 20 μM (2×) acetylcholine is added in the preincubation part of the assay, and the 30 μM (3×) stock is added in the second part. (EC20)Acetylcholine: 10 mM in water, working stock of 9 nM (3×), and final concentration in assay is 3 nM. This is used after the preincubation with test compounds. Addition of the EC20 Acetylcholine to each well with a test compound will ascertain any modulator activity. 24 wells contain 3 nM Acetylcholine alone as a control.
Determining Activity of Putative Compounds:
Screening Plate Compounds are titrated in 96-well plates (columns 2-11), 100% DMSO, started at a concentration of 15 mM (150× stock concentration), and 3-fold serial dilutions using Genesis Freedom200 System. Four 96-well plates are combined into a 384-well plate using Mosquito Nanoliter Pipetting System by transferring 1 μl of serial diluted compounds to each well, and 1 mM acetylcholine (100× stock concentration) were added as a control. Using Temo, 49 μl assay buffer is added to each well of the 384-well plate right before assay.
In a 96-well Whatman 2 ml Uniplate, 9 nM Acetylcholine (3×) is pipetted into wells corresponding to the screening compounds, and into control wells. The 30 μM acetylcholine control (3×) is added into control wells, and the 3× agonist plate is transferred into a 384 well plate.
Cells are washed three times with 100 μL of buffer, leaving 30 μL of buffer in each well. Using Multimek, 30 μL of Dye Loading Buffer is added into each well and incubated at 37° C., 5% CO2 for up to one hr.
After 60 min, the cells are washed three times with 100 μL of buffer, leaving 30 μL of buffer in each well. The cell plate, screening plate, and agonist addition plates are placed on the platform in the FLIPR and the door closed. A signal test to check background fluorescence and basal fluorescence signal is performed. Laser intensity is adjusted if necessary. […]
As to `O=CCC1c2c(cc(Cc3ccc(Cl)nc3)c3cccnc23)C(=O)N1[C@H]1CCCC[C@@H]1O` (stereo partly drawn) [Example 22, {5-[(6-Chloropyridin-3-yl)methyl]-8-[(1S,2S)-2-hydroxycyclohexyl]-7-oxo-8,9-dihydro-7H-pyrrolo[3,4-h]quinolin-9-yl}acetaldehyde], the EC50 is 15 nM.

With `CN(C)CCC1c2c(cc(Cc3ccc(Cl)nc3)c3cccnc23)C(=O)N1[C@H]1CCCC[C@@H]1O` (stereo partly drawn) [Example 23, 5-[(6-Chloropyridin-3-yl)methyl]-9-[2-(dimethylamino)ethyl]-8-[(1S,2S)-2-hydroxycyclohexyl]-8,9-dihydro-7H-pyrrolo[3,4-h]quinolin-7-one], the EC50 is 99 nM. On to `O=C1c2cc(Cc3ccc(Cl)nc3)c3cccnc3c2C(CCO)N1[C@H]1CCCC[C@@H]1O` (stereo partly drawn) [Example 24, 5-[(6-Chloropyridin-3-yl)methyl]-8-[(1S,2S)-2-hydroxycyclohexyl]-9-(2-hydroxyethyl)-8,9-dihydro-7H-pyrrolo[3,4-h]quinolin-7-one], for which the EC50 is 7.4 nM. On to `O=C1c2cc(Cc3ccc(C4CC4)nc3)c3cccnc3c2CN1[C@H]1CCCC[C@@H]1O` [Example 25, 5-[(6-Cyclopropylpyridin-3-yl)methyl]-8-[(1S,2S)-2-hydroxycyclohexyl-8,9-dihydro-7H-pyrrolo 3,4-h]quinolin-7-one], for which the EC50 is 10.5 nM.
